# Test results reported in patent US5165931A, “Peptifluorin and neopeptifluorin” (E. R. Squibb & Sons, Inc., priority 1991, dated 1992).
# Assays:
# mevalonate kinase = assay: inhibition of mevalonate kinase from yeast; assay type: biochemical
# Candida tropicalis = assay: agar dilution MIC assay, yeasts; assay type: cell-based; conditions: 37° C., 36-48 hours
# Experimental: (§1) The following methodology was used to determine the minimum inhibitory concentration (hereinafter referred to as MIC) of the compound of this invention against bacteria. The test organisms were grown in 20 ml of Antibiotic Assay Broth (Difco) by inoculating the broth (in tubes) with a loopful of the organism from a BHI (Difco) agar slant. The inoculated tubes were incubated at 37° C. for 18 to 24 hours. These cultures were assumed to contain 10^9 colony forming units (CFU) per ml. The cultures were diluted 1:100 to give a final inoculum level of 10^7 CFU; dilutions were made with Yeast Beef Broth (Difco). The test compound was dissolved in an appropriate diluent at a concentration of 1,000 μg/ml. Two-fold dilutions were made in Yeast Beef Broth (Difco), resulting in
# (§2) a range from 1000 μg/ml to 0.5 μg/ml. A 1.5 ml portion of each dilution was placed into individual petri dishes to which 13.5 ml of K-10 agar was added. The composition of K-10 agar is:
# (§3) The final drug concentration in the agar ranged from 100 μg/ml to 0.05 μg/ml. Organism growth control plates containing agar only were prepared and inoculated before and after the test plates. The organisms were applied to the agar surface of each plate with a Denly Multipoint Inoculator (which delivers approximately 0.001 ml of each inoculum) resulting in a final inoculum of 10^4 CFU on the agar surface.
# (§4) The plates were incubated at 37° C. for 18 hours and the MICs determined. The MIC is the lowest concentration of compound inhibiting growth of the organism.
# (§5) The methodology described above was modified in the assay for activity against yeasts. Fresh F-4 slants of the test organisms were obtained from frozen vials (-70° C.). The cultures were inoculated into tubes of F-4 broth and incubated at 37° C. for 18 to 24 hours, at which time the average cell count was assumed to be 5×10^7 CFU per ml. These were diluted 1:50 with fresh F-4 broth to give an inoculum level of 1×10^6 CFU per mL. The organisms were then dispensed into a sterile template (0.8 ml per well) and delivered onto the surface of each plate containing test compound as described above with a Denly Multipoint Inoculator, resulting in a final inoculum of 10^3 CFU on the agar surface.
# (§6) The composition of the F-4 broth is:
# (§7) The medium was sterilized at 121° C. for 15 minutes at 15 psi.
# (§8) F-4 agar has the same composition as the broth but with the addition of 15 g agar per liter.
# (§9) The results of the yeast, agar dilution assays (determined after incubation at 37° C. for 36-48 hours) are: […]
# Candida glabrata = assay: agar dilution MIC assay, yeasts; assay type: cell-based; conditions: strain SC 11,267; 37° C., 36-48 hours
# Experimental: as §1, §2, §3, §4, §5, §6, §7, §8, §9
# Candida albicans = assay: agar dilution MIC assay, yeasts; assay type: cell-based; conditions: 37° C., 36-48 hours
# Experimental: as §1, §2, §3, §4, §5, §6, §7, §8, §9
# Candida krusei = assay: agar dilution MIC assay, yeasts; assay type: cell-based; conditions: strain SC 2967; 37° C., 36-48 hours
# Experimental: as §1, §2, §3, §4, §5, §6, §7, §8, §9
# Saccharomyces cerevisiae = assay: agar dilution MIC assay, yeasts; assay type: cell-based; conditions: 37° C., 36-48 hours
# Experimental: as §1, §2, §3, §4, §5, §6, §7, §8, §9
# Salmonella typhosa = assay: agar dilution MIC assay, bacteria; assay type: cell-based; conditions: strain SC 1195; K-10 agar, 37° C., 18 hours
# Experimental: as §1, §2
# (§10) The medium was sterilized at 121° C. for 15 minutes at 15 pounds psi.
# as §3, §4
# (§11) The results of the agar dilution assays with bacteria are: […]
# Streptococcus faecalis = assay: agar dilution MIC assay, bacteria; assay type: cell-based; conditions: strain SC 9011; K-10 agar, 37° C., 18 hours
# Experimental: as §1, §2, §10, §3, §4, §11
# Escherichia coli = assay: agar dilution MIC assay, bacteria; assay type: cell-based; conditions: K-10 agar, 37° C., 18 hours
# Experimental: as §1, §2, §10, §3, §4, §11
# Klebsiella pneumoniae = assay: agar dilution MIC assay, bacteria; assay type: cell-based; conditions: K-10 agar, 37° C., 18 hours
# Experimental: as §1, §2, §10, §3, §4, §11
# Shigella sonnei = assay: agar dilution MIC assay, bacteria; assay type: cell-based; conditions: strain SC 8449; K-10 agar, 37° C., 18 hours
# Experimental: as §1, §2, §10, §3, §4, §11
# Enterobacter cloacae = assay: agar dilution MIC assay, bacteria; assay type: cell-based; conditions: strain SC 8236; K-10 agar, 37° C., 18 hours
# Experimental: as §1, §2, §10, §3, §4, §11
# Staphylococcus aureus = assay: agar dilution MIC assay, bacteria; assay type: cell-based; conditions: K-10 agar, 37° C., 18 hours
# Experimental: as §1, §2, §10, §3, §4, §11
# Micrococcus luteus = assay: agar dilution MIC assay, bacteria; assay type: cell-based; conditions: strain SC 2495; K-10 agar, 37° C., 18 hours
# Experimental: as §1, §2, §10, §3, §4, §11
# bacteria = assay: antibacterial activity (general statement); assay type: cell-based
# Experimental: as §1, §2
# The final drug concentration in the agar ranged from 100 μg/ml to 0.05 μg/ml. Organism growth control plates containing agar only were prepared and inoculated before and after the test plates. […]
# The plates were incubated at 37° C. for 18 hours and the MICs determined. […]
# yeasts = assay: antifungal activity (general statement); assay type: cell-based
# Experimental: as §5
# Streptococcus agalactiae = assay: agar dilution MIC assay, bacteria; assay type: cell-based; conditions: strain SC 14,008; K-10 agar, 37° C., 18 hours
# Experimental: as §1, §2, §10, §3, §4, §11
substance,measurement,setting,value
peptifluorin,inhibiting mevalonate kinase from yeast,mevalonate kinase,moderately active
same,MIC,Candida tropicalis; strain SC 8159,12.5 µg/mL
same,MIC,Candida tropicalis; strain SC 9861,3.1 µg/mL
same,MIC,Candida glabrata,12.5 µg/mL
same,MIC,Candida albicans; strain SC 5314,12.5 µg/mL
same,MIC,Candida albicans; strain SC 9177,25.0 µg/mL
same,MIC,"Candida albicans; strain SC 11,422",12.5 µg/mL
same,MIC,Candida krusei,100 µg/mL
same,MIC,Saccharomyces cerevisiae; strain SC 1600,12.5 µg/mL
same,MIC,"Saccharomyces cerevisiae; strain SC 12,955",25.0 µg/mL
same,MIC,Saccharomyces cerevisiae; strain SGY 1139,3.1 µg/mL
same,MIC,Salmonella typhosa,> 100.0 µg/mL
same,MIC,Streptococcus faecalis,6.3 µg/mL
same,MIC,Escherichia coli; strain SC 8294,> 100.0 µg/mL
same,MIC,"Escherichia coli; strain SC 10,857",50.0 µg/mL
same,MIC,"Escherichia coli; strain SC 10,896",12.5 µg/mL
same,MIC,Klebsiella pneumoniae; strain SC 9527,> 100.0 µg/mL
same,MIC,"Klebsiella pneumoniae; strain SC 10,440",50.0 µg/mL
same,MIC,Shigella sonnei,25.0 µg/mL
same,MIC,Enterobacter cloacae,25.0 µg/mL
same,MIC,Staphylococcus aureus; strain SC 1276,6.3 µg/mL
same,MIC,Staphylococcus aureus; strain SC 2399,6.3 µg/mL
same,MIC,Staphylococcus aureus; strain SC 2400,6.3 µg/mL
same,MIC,Micrococcus luteus,6.3 µg/mL
same,antibacterial activity,bacteria,broad spectrum antibacterial activity
same,antifungal activity,yeasts,antifungal activity
neopeptifluorin,inhibiting mevalonate kinase from yeast,mevalonate kinase,moderately active
same,MIC,Candida tropicalis; strain SC 8159,6.3 µg/mL
same,MIC,Candida tropicalis; strain SC 9861,3.1 µg/mL
same,MIC,Candida glabrata,25.0 µg/mL
same,MIC,Candida albicans; strain SC 5314,6.3 µg/mL
same,MIC,Candida albicans; strain SC 9177,25.0 µg/mL
same,MIC,"Candida albicans; strain SC 11,422",12.5 µg/mL
same,MIC,Candida krusei,100 µg/mL
same,MIC,Saccharomyces cerevisiae; strain SC 1600,6.3 µg/mL
same,MIC,"Saccharomyces cerevisiae; strain SC 12,955",12.5 µg/mL
same,MIC,Saccharomyces cerevisiae; strain SGY 1139,1.6 µg/mL
same,MIC,Salmonella typhosa,100 µg/mL
same,MIC,Streptococcus faecalis,6.3 µg/mL
same,MIC,Streptococcus agalactiae,6.3 µg/mL
same,MIC,Escherichia coli; strain SC 8294,50.0 µg/mL
same,MIC,"Escherichia coli; strain SC 10,857",12.5 µg/mL
same,MIC,"Escherichia coli; strain SC 10,896",12.5 µg/mL
same,MIC,Klebsiella pneumoniae; strain SC 9527,> 100 µg/mL
same,MIC,"Klebsiella pneumoniae; strain SC 10,440",25.0 µg/mL
same,MIC,Shigella sonnei,25 µg/mL
same,MIC,Enterobacter cloacae,12.5 µg/mL
same,MIC,Staphylococcus aureus; strain SC 1276,3.1 µg/mL
same,MIC,Staphylococcus aureus; strain SC 2399,6.3 µg/mL
same,MIC,Staphylococcus aureus; strain SC 2400,6.3 µg/mL
same,MIC,Micrococcus luteus,6.3 µg/mL
same,antibacterial activity,bacteria,broad spectrum antibacterial activity
same,antifungal activity,yeasts,antifungal activity
